Results on 4 compounds are retold here after patent publication US20100285959A1, “HERBICIDAL MIXTURES” (priority 2006, published 2010).

Test [1] relates to common lambsquarters (CHEAL). Description: Test 9 field trial, emerged weeds before corn planting. It counts as in vivo, Chenopodium album. The note with it: 57 DAA; g a.i./ha: Cpd 2 100, Glyphosate 1540, Paraquat 1150. As to the method:
(§1) Corn seeds (hybrid ‘Pioneer 34M91 RR’) were planted in mid spring season, about 3.8 cm deep in a silty clay loam soil having a pH of 6.7. Plots were 9.1 m long by 3.0 m. The field was managed using no-till practices. […] Compound 2 and paraquat treatments, alone and in combination, also included a surfactant. Glyphosate, alone and with Compound 2, included ammonium sulfate in the treatment mixture. […] The effects on the weeds in the treated plots and untreated control plots were recorded 7, 14, 23, 30 and 57 days after application. Most of the weed species could not be evaluated at every timing. Corn response was only evaluated 57 days after application. […] Results are the means of the three replicates.

Test [2] concerns common dandelion (TAROF). The test is described as above. The note with it: g a.i./ha: Cpd 2 100, Glyphosate 1540, Paraquat 1150. In kind it is in vivo, Taraxacum officinale. As to the method: as §1
In test [3] the test system is ivyleaf morningglory (IPOHE). Briefly: Test 14 field trial, preemergence, growth as percent of control. In kind it is in vivo, Ipomoea hederacea. The note with it: 28 DAA. The source says: Corn seeds (hybrid ‘Pioneer 31G96 RR’) were planted in mid spring season, 3.8 cm deep in a clay loam soil having 2% organic matter and a pH of 6.6. Plots were 6.1 m long by 3.0 m wide with rows spaced 76 cm apart. Seeds were spaced 15 cm apart within the rows. The field was managed using conventional tillage practices. […] Yellow nutsedge was only evaluated 19 and 28 days after application, and ivyleaf morningglory could only be evaluated 28 days after application. […] Results are the means of the three replicates. This growth inhibition data was converted to results in the form of “plant growth as a percent of control plant growth” using the calculation “100 minus growth inhibition”. […] For “growth as a percent of control” data, Colby's Equation calculates the expected additive effect of herbicidal mixtures having two active ingredients as follows:
Ga+b=GaGb/100 • wherein Ga+b is the growth as a percent of control of plants treated with the mixture expected from additive contribution of the individual components, • Ga is the observed growth as a percent of control of plants treated with the first active ingredient at the same use rate as in the mixture, and • Gb is the observed growth as a percent of control of plants treated with the second active ingredient at the same use rate as in the mixture. For mixtures having three active ingredients, Colby's Equation to calculate the expected additive effect of herbicidal mixtures is as follows:
Ga+b+c=GaGbGc/10,000 • wherein Ga and Gb are as defined above and • Ga+b+c is the growth as a percent of control of plants treated with the mixture expected from additive contribution of the individual components, and • Gc is the observed growth as a percent of control of plants treated with the third active ingredient at the same use rate as in the mixture. When these two forms of Colby's Equation are used, if the observed effects on weeds are less than the expected values, the mixture is synergistic.

The subject of test [4] is redroot pigweed (AMARE). Briefly: Test 21 growth chamber, postemergence. It counts as in vivo, Amaranthus retroflexus. The note with it: 19 DAA. As to the method: (§2) A test was conducted to evaluate the effects on winter barley (HORVW, Hordeum vulgare L.), winter wheat (TRZAW, Triticum aestivum L.), and several weed species, of mixtures of Compound 2 with the commercial herbicide (2,4-dichlorophenoxy)acetic acid (2,4-D), an auxin mimic. […] Plants were treated postemergence at the 2-4 leaf growth stage, and each treatment was replicated one time. […] Plants were watered as needed. […] Results are from single replicates.

The test system of test [5] is kochia (KCHSC). Description: Test 21 growth chamber, postemergence. The note with it: 19 DAA. It counts as in vivo, Kochia scoparia. As to the method:
as §2

The test system of test [6] is wild buckwheat (POLCO). Description: Test 21 growth chamber, postemergence. The note with it: 19 DAA. It counts as in vivo, Polygonum convolvulus. On the procedure:
as §2

Test [7] relates to Russian thistle (SASKR). Briefly: Test 21 growth chamber, postemergence. The note with it: 19 DAA. It counts as in vivo, Salsola kali. As to the method: as §2
Test [8] concerns galium (GALAP). Briefly: Test 22 growth chamber, postemergence. In kind it is in vivo, Galium aparine. The note with it: 25 DAA. On the procedure: (§3) A test was conducted to evaluate the effects on winter barley (HORVW, Hordeum vulgare L.), winter wheat (TRZAW, Triticum aestivum L.), and several weed species of mixtures of Compound 2 with the commercial herbicides (2,4-dichlorophenoxy)acetic acid (2,4-D) and (4-chloro-2-methylphenoxy)acetic acid (MCPA), auxin mimics. […] Plants were treated postemergence at the 2-4 leaf growth stage, except KCHSC, SASKR and STEME which were in the 4-8 leaf growth stage. Each treatment was replicated one time. […] Plants were watered as needed. […] Results are from single replicates.

The test system of test [9] is common chickweed (STEME). Briefly: Test 22 growth chamber, postemergence. The note with it: 25 DAA. In kind it is in vivo, Stellaria media. As to the method:
as §3

Test [10] deals with wild mustard (SINAR). Description: Test 23 growth chamber, postemergence. It counts as in vivo, Sinapis arvensis. The note with it: 21 DAA. On the procedure: (§4) A test was conducted to evaluate the effects on winter barley (HORVW, Hordeum vulgare L.), winter wheat (TRZAW, Triticum aestivum L.), and several weed species of mixtures of Compound 2 with the commercial herbicides (2,4-dichlorophenoxy)acetic acid (2,4-D) and (4-chloro-2-methylphenoxy)acetic acid (MCPA), auxin mimics. […] Plants were treated postemergence at the 2-4 leaf growth stage, and each treatment was replicated three times. […] Plants were watered as needed. […] Results are means of the three replicates.

For test [11], the system named is field violet (VIOAR). Briefly: Test 23 growth chamber, postemergence. It counts as in vivo, Viola arvensis. The note with it: 21 DAA. As to the method: as §4
The mark [12] stands for this setting: 2,4-D or MCPA alone 250 g a.i./ha.

Structures are written as SMILES.

For `COC(=O)c1nc(C2CC2)nc(N)c1Cl` [Compound 2, methyl 6-amino-5-chloro-2-cyclopropyl-4-pyrimidinecarboxylate], the “CHEAL Obs” value in test [1] was determined as 95%. In addition, the “TAROF Obs” value in [2] (7 DAA) came to 37%; in test [2] (14 DAA) it was 38%; in test [2] (23 DAA), 60%; in test [2] (30 DAA) it was 65%; in [2] (57 DAA) it was 84%. Also, the “Obs growth % of control” value in [3] (75 g a.i./ha) and in [3] (100 g a.i./ha) was 0% throughout. The “Postemergence AMARE Obs” value in [4] (Cpd 2 alone 16 g a.i./ha) stood at 60. For the same compound, in test [5] (Cpd 2 alone 16 g a.i./ha), the “Postemergence KCHSC Obs” value worked out at 65. The “Postemergence POLCO Obs” value in [6] (Cpd 2 alone 16 g a.i./ha) was 70. Also, the “Postemergence SASKR Obs” value in test [7] (Cpd 2 alone 16 g a.i./ha) was 65. Besides, the entries for the “Postemergence GALAP Obs” value in [8] (Cpd 2 alone 4 g a.i./ha), in test [8] (Cpd 2 alone 8 g a.i./ha) and in test [8] (Cpd 2 alone 16 g a.i./ha) were 65, 90 and 100, respectively. For the same compound, the “Postemergence STEME Obs” value in test [9] (Cpd 2 alone 4 g a.i./ha) stood at 50; in test [9] (Cpd 2 alone 8 g a.i./ha) it was 50; in test [9] (Cpd 2 alone 16 g a.i./ha) it was 55. Further, the “Postemergence SINAR Obs” value in test [10] (Cpd 2 alone 4 g a.i./ha) was 43; in test [10] (Cpd 2 alone 8 g a.i./ha), 53; in test [10] (Cpd 2 alone 16 g a.i./ha) it was 55. The “Postemergence VIOAR Obs” value stood at 60 in test [11] (Cpd 2 alone 4 g a.i./ha), 63 in test [11] (Cpd 2 alone 8 g a.i./ha) and 72 in [11] (Cpd 2 alone 16 g a.i./ha).

As to `O=C(O)CNCP(=O)(O)O` [Glyphosate], the “CHEAL Obs” value in [1] is 0%. The “TAROF Obs” value in test [2] (7 DAA) is 37%; in test [2] (14 DAA), 62%; in [2] (23 DAA) it was 83%; in [2] (30 DAA), 90%; in [2] (57 DAA) it was 88%.

Take `CCc1cccc(C)c1N(C(=O)CCl)[C@@H](C)COC` [S-Metolachlor, S-metolachlor, reference compound]: the “Obs growth % of control” value in test [3] (1870 g a.i./ha) is 0%.

Take `O=C(O)COc1ccc(Cl)cc1Cl` [2,4-D, (2,4-dichlorophenoxy)acetic acid]: the “Postemergence AMARE Obs” value in test [4] (2,4-D alone 125 g a.i./ha) and in test [4] (2,4-D alone 250 g a.i./ha) was 50 each time. Further, the “Postemergence KCHSC Obs” value in test [5] (2,4-D alone 125 g a.i./ha) and in test [5] (2,4-D alone 250 g a.i./ha) was 45 throughout. Besides, the “Postemergence POLCO Obs” value in [6] (2,4-D alone 125 g a.i./ha) and in [6] (2,4-D alone 250 g a.i./ha) was 20 each time. The “Postemergence SASKR Obs” value in [7] (2,4-D alone 125 g a.i./ha) was determined as 60; in [7] (2,4-D alone 250 g a.i./ha), 55. For the same compound, the “Postemergence GALAP Obs” value in test [8] (setting [12]) is 30. Also, the “Postemergence STEME Obs” value in test [9] (setting [12]) is listed as 55. In addition, in [10] (setting [12]), the “Postemergence SINAR Obs” value was found to be 65. Also, the “Postemergence VIOAR Obs” value in test [11] (setting [12]) was 63.
